Results as given in patent EP4653445A1, “CDK INHIBITOR AND CRYSTAL FORM OF PHARMACEUTICALLY ACCEPTABLE SALT THEREOF, AND USE THEREOF” (CSPC Zhongqi Pharmaceutical Technology (Shijiazhuang) Co., …, priority 2023, dated 2024).

How the values were obtained:
[1] = Long-term stability testing; assay type: physicochemical; settings: 25°C±2°C/60%±5%RH, simulated commercial packaging
[2] = Accelerated stability testing; assay type: physicochemical; settings: 40°C±2°C/75%±5%RH, simulated commercial packaging
[3] = Stability test, samples placed open for 7 days (HPLC and XRPD); assay type: physicochemical; settings: HPLC
[4] = Solubility comparison in water, SGF, FaSSIF and FeSSIF (HPLC of filtrates, XRPD of filter cakes); settings: SGF, time not stated
[5] = Grinding or crushing of the crystalline form; assay type: physicochemical
From the text: Table 28 Results of Stability Test

[6] = Dynamic vapor sorption (DVS) test; assay type: physicochemical; settings: DVS
Description: • Instrument: TA Instruments Q5000 SA • Detection method: 20 to 50 mg of the sample was placed in a tared sample basket and automatically weighed, and DVS testing was performed according to the parameters in Table 7: Step Time: 60 min; Equilibration Time per RH%: 1 hour; Total Gas Flow Rate: 200 sccm; Gradient mode: 0%-90%-0% humidity variation, with a humidity variation amount of 10% for each gradient level between 0% and 90%, and gradient endpoint was determined by dm/dt < 0.01% maintained for 10 minutes.

[7] = Stress testing (high temperature, high humidity, illumination); assay type: physicochemical
[8] = Stability test, samples placed open for 7 days (HPLC and XRPD); assay type: physicochemical; settings: for XRPD-7days / Purity (Peak area%) 7 days: open
From the text: Subsequently, the samples after 7 days were respectively detected by HPLC and XRPD to determine their chemical and physical stabilities.

[9] = High Humidity (92.5% RH), 7 days
[10] = High Humidity (92.5% RH), 14 days
[11] = High Humidity (92.5% RH), 30 days
[12] = High Temperature (60°C), 7 days
[13] = High Temperature (60°C), 14 days
[14] = High Temperature (60°C), 30 days
[15] = Illumination Testing 4500lx±500lx, 7 days
[16] = Illumination Testing 4500lx±500lx, 14 days
[17] = Illumination Testing 4500lx±500lx, 30 days

SMILES: CC(=O)c1c(C)c2cnc(Nc3ccc4c(c3)OC[C@@H]3CN(C5CCN(C)CC5)CCN43)nc2n(C2CCCC2)c1=O [crystalline form A-I of the free base of compound A]
- description, loss on drying, relevant substances, crystalline form and content compared with 0 month ([1]; 18 months): basically the same
- Description Appearance ([1]; 0 months): Yellow solid
- Measured content (%) ([1]; 0 months): 99.5%
- Total impurities (%) ([1]; 0 months): 0.84%
- crystalline form ([1]; 0 months): crystalline form A-I of free base
- loss on drying (%) ([1]; 0 months): 0.03%
- Description Appearance ([1]; 3 months): Yellow solid
- Measured content (%) ([1]; 3 months): 100.8%
- Total impurities (%) ([1]; 3 months): 0.89%
- crystalline form ([1]; 3 months): Unchanged
- loss on drying (%) ([1]; 3 months): 0.02%
- Description Appearance ([1]; 6 months): Yellow solid
- Measured content (%) ([1]; 6 months): 100.6%
- Total impurities (%) ([1]; 6 months): 0.75%
- crystalline form ([1]; 6 months): Unchanged
- loss on drying (%) ([1]; 6 months): 0.05%
- Description Appearance ([1]; 9 months): Yellow solid
- Measured content (%) ([1]; 9 months): 99.6%
- Total impurities (%) ([1]; 9 months): 0.73%
- crystalline form ([1]; 9 months): Unchanged
- loss on drying (%) ([1]; 9 months): 0.05%
- Description Appearance ([1]; 12 months): Yellow solid
- Measured content (%) ([1]; 12 months): 100.8%
- Total impurities (%) ([1]; 12 months): 0.78%
- crystalline form ([1]; 12 months): Unchanged
- loss on drying (%) ([1]; 12 months): 0.05%
- Description Appearance ([1]; 18 months): Yellow solid
- Measured content (%) ([1]; 18 months): 98.7%
- Total impurities (%) ([1]; 18 months): 0.71%
- crystalline form ([1]; 18 months): Unchanged
- loss on drying (%) ([1]; 18 months): 0.03%
- description, loss on drying, relevant substances, crystalline form and content compared with 0 month ([2]; 6 months): basically the same
- Description Appearance ([2]; 0 months): Yellow solid
- Measured content (%) ([2]; 0 months): 99.5%
- Total impurities (%) ([2]; 0 months): 0.84%
- crystalline form ([2]; 0 months): crystalline form A-I of free base
- loss on drying (%) ([2]; 0 months): 0.03%
- Description Appearance ([2]; 1 month): Yellow solid
- Measured content (%) ([2]; 1 month): 100.4%
- Total impurities (%) ([2]; 1 month): 0.80%
- loss on drying (%) ([2]; 1 month): 0.04%
- Description Appearance ([2]; 2 months): Yellow solid
- Measured content (%) ([2]; 2 months): 100.8%
- Total impurities (%) ([2]; 2 months): 0.82%
- loss on drying (%) ([2]; 2 months): 0.02%
- Description Appearance ([2]; 3 months): Yellow solid
- Measured content (%) ([2]; 3 months): 100.6%
- Total impurities (%) ([2]; 3 months): 0.85%
- crystalline form ([2]; 3 months): Unchanged
- loss on drying (%) ([2]; 3 months): 0.02%
- Description Appearance ([2]; 6 months): Yellow solid
- Measured content (%) ([2]; 6 months): 100.9%
- Total impurities (%) ([2]; 6 months): 0.77%
- crystalline form ([2]; 6 months): Unchanged
- loss on drying (%) ([2]; 6 months): 0.08%
- Purity (Peak area%) 0 day [3]: 99.16 Peak area%
- solubility in SGF [4]: more than 5 mg/mL
- crystalline form after grinding or crushing [5]: remained unchanged
- hygroscopic properties ([6]; 0%-90% RH): non-hygroscopic
- weight change ([6]; across 0%-90% RH): approximately 0.17%
- Content (%) ([7]; 0 Day): 99.5%
- Description Appearance ([7]; 0 Day): Yellow solid
- Total impurities (%) ([7]; 0 Day): 0.84%
- crystalline form ([7]; 0 Day): crystalline form A-I of free base
- loss on drying (%) ([7]; 0 Day): 0.03%
- Content (%) [7, 9]: 100.2%
- Description Appearance [7, 9]: Yellow solid
- Hygroscopic weight gain (%) [7, 9]: 0.03%
- Total impurities (%) [7, 9]: 0.76%
- loss on drying (%) [7, 9]: 0.06%
- Content (%) [7, 10]: 99.6%
- Description Appearance [7, 10]: Yellow solid
- Hygroscopic weight gain (%) [7, 10]: 0.05%
- Total impurities (%) [7, 10]: 0.78%
- loss on drying (%) [7, 10]: 0.07%
- Content (%) [7, 11]: 101.0%
- Description Appearance [7, 11]: Yellow solid
- Hygroscopic weight gain (%) [7, 11]: 0.09%
- Total impurities (%) [7, 11]: 0.87%
- crystalline form [7, 11]: Unchanged
- loss on drying (%) [7, 11]: 0.05%
- Content (%) [7, 12]: 100.4%
- Description Appearance [7, 12]: Yellow solid
- Total impurities (%) [7, 12]: 0.76%
- loss on drying (%) [7, 12]: 0.05%
- Content (%) [7, 13]: 100.6%
- Description Appearance [7, 13]: Yellow solid
- Total impurities (%) [7, 13]: 0.83%
- loss on drying (%) [7, 13]: 0.05%
- Content (%) [7, 14]: 100.1%
- Description Appearance [7, 14]: Yellow solid
- Total impurities (%) [7, 14]: 0.81%
- crystalline form [7, 14]: Unchanged
- loss on drying (%) [7, 14]: 0.03%
- Content (%) [7, 15]: 101.0%
- Description Appearance [7, 15]: Yellow solid
- Total impurities (%) [7, 15]: 0.76%
- loss on drying (%) [7, 15]: 0.07%
- Content (%) [7, 16]: 100.2%
- Description Appearance [7, 16]: Yellow solid
- Total impurities (%) [7, 16]: 0.79%
- loss on drying (%) [7, 16]: 0.06%
- Content (%) [7, 17]: 100.2%
- Description Appearance [7, 17]: Yellow solid
- Total impurities (%) [7, 17]: 0.84%
- crystalline form [7, 17]: Unchanged
- loss on drying (%) [7, 17]: 0.07%
- stability in stress testing (conclusion) ([7]; high temperature, high humidity and illumination conditions): good stability
- stability under illumination ([7]; illuminance 4500 lx±500 lx, total not less than 1.2×10^6 lux·hr, near-UV not less than 200 W·hr/m^2): relatively stable
- XRPD-7days ([8]; 40°C /75%RH): Unchanged
- Purity (Peak area%) 7 days ([8]; 40°C /75%RH, HPLC): 99.20 Peak area%
- chemical stability ([8]; 60 °C, 92.5% RH and 40 °C/75% RH for 7 days, HPLC): chemically stable
- XRPD-7days ([8]; 60°C): Unchanged
- Purity (Peak area%) 7 days ([8]; 60°C, HPLC): 99.24 Peak area%
- XRPD-7days ([8]; 92.5%RH): Unchanged
- Purity (Peak area%) 7 days ([8]; 92.5%RH, HPLC): 99.24 Peak area%
- crystalline form (XRPD) after 7 days ([8]; under the three conditions 60 °C, 92.5% RH and 40 °C/75% RH): remained unchanged
